Data from ChEMBL document CHEMBL1140663, “Effect of the minor ABA metabolite 7'-hydroxy-ABA on Arabidopsis ABA 8'-hydroxylase CYP707A3” (Bioorg Med Chem Lett, 2007).

Key:
[1] = molecular target: T1, Abscisic acid 8'-hydroxylase 3 (Arabidopsis thaliana, UniProt Q9FH76); experiment: Inhibition of recombinant CYP707A3 at 50 uM
T1 sequence (Q9FH76 whole entry): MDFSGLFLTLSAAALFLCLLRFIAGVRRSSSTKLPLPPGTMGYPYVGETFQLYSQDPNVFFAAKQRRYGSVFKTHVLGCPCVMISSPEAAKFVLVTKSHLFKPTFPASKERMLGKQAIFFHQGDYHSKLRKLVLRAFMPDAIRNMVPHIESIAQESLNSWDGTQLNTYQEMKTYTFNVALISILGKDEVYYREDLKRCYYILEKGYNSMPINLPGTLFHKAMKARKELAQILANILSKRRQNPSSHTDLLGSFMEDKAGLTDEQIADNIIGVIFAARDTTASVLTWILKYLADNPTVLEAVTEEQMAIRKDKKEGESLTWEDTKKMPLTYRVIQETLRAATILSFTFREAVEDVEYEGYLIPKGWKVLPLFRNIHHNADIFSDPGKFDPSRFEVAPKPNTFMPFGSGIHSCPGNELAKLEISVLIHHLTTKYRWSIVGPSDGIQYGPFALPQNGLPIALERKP

[2] = molecular target: T1, Abscisic acid 8'-hydroxylase 3; experiment: Inhibition of recombinant CYP707A3 at 5 uM

inhibition at 50 µM [1] | inhibition at 5 µM [2] | SMILES
0% | 0% | CC(=C/C(=O)O)/C=C/[C@@]1(O)C(CO)=CC(=O)CC1(C)C
63% | 15% | CC(=C/C(=O)O)/C=C/[C@@]1(O)C(C=O)=CC(=O)CC1(C)C
24% | 0% | CC(=C/C(=O)O)/C=C/[C@H]1C(CO)=CC(=O)CC1(C)C
